According to US9464084B2, “P2X7 modulators” (Janssen Pharmaceutica NV, priority 2013, dated 2016):

molecular target: P2X7 (Homo sapiens (Human), UniProt Q99572); assay: P2X7 antagonism in human PBMCs (LPS + Bz-ATP induced IL-1β release, ELISA); format: cell-based; settings: compound 1 μM, LPS 30 ng/ml, Bz-ATP 0.5 mM;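 note: PBMCs from donor human blood, with a further 1.5 h incubation of the cells in the assay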
Sequence (Q99572 whole entry): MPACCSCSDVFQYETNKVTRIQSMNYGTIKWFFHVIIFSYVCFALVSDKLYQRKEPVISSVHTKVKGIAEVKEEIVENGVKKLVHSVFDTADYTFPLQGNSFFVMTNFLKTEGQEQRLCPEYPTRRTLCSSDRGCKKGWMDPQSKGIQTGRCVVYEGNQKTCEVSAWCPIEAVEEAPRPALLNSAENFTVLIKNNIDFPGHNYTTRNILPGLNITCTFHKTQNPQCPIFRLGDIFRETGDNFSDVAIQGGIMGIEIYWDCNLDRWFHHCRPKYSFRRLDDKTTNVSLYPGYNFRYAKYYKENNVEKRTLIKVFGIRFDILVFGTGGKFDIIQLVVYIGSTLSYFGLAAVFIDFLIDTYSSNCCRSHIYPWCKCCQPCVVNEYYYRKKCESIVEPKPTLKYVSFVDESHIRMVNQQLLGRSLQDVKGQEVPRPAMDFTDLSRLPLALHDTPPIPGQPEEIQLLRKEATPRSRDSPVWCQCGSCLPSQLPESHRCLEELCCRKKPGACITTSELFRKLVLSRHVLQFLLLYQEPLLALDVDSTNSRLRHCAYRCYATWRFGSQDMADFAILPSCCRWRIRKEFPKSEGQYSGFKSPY

Question: How did the “PBMC 1 μM (% control)” value turn out when `O=C(c1cccc(C(F)(F)F)c1Cl)N1CCc2c(ncn2-c2ccccc2)C1CO` (centres unmarked) [Example 30, (5-{[2-Chloro-3-(trifluoromethyl)phenyl]carbonyl}-1-phenyl-4,5,6,7-tetrahydro-1H-imidazo[4,5-c]pyridin-4-yl)methanol] was run?
Answer: The value was 87.0 % control.

Question: How did the “PBMC 1 μM (% control)” value turn out when `O=C(O)C1c2ncn(-c3ccccn3)c2CCN1C(=O)c1cccc(C(F)(F)F)c1Cl` (centres unmarked) [Example 33, 5-{[2-Chloro-3-(trifluoromethyl)phenyl]carbonyl}-1-pyridin-2-yl-4,5,6,7-tetrahydro-1H-imidazo[4,5-c]pyridine-4-carboxylic acid] was run?
Answer: Its value is 100.7 % control.

Question: Which “PBMC 1 μM (% control)” value does the source give for `O=C(c1cccc(C(F)(F)F)c1Cl)N1CCc2nc[nH]c2C1` [Example 48, 5-{[2-Chloro-3-(trifluoromethyl)phenyl]carbonyl}-4,5,6,7-tetrahydro-3H-imidazo[4,5-c]pyridine] here?
Answer: Its value is 90.1 % control.

Question: Which “PBMC 1 μM (% control)” value does the source give for `O=C(c1cccc(C(F)(F)F)c1Cl)N1C=Cc2c(ncn2-c2ccccc2)C1` [Example 49, 5-{[2-Chloro-3-(trifluoromethyl)phenyl]carbonyl}-1-phenyl-4,5-dihydro-1H-imidazo[4,5-c]pyridine] here?
Answer: Its value is 93.5 % control.

Question: `O=C(c1cccc2c1OC(F)(F)O2)N1CCc2c(ncn2-c2ccccc2)C1` [Example 50, 5-[(2,2-Difluoro-1,3-benzodioxol-4-yl)carbonyl]-1-phenyl-4,5,6,7-tetrahydro-1H-imidazo[4,5-c]pyridine] was tested. Which “PBMC 1 μM (% control)” value did it give?
Answer: Its value is 96.0 % control.

Question: With `O=C(c1cccc2c1OCC2)N1CCc2c(ncn2-c2ccccc2)C1` [Example 51, 5-(2,3-Dihydro-1-benzofuran-7-ylcarbonyl)-1-phenyl-4,5,6,7-tetrahydro-1H-imidazo[4,5-c]pyridine] as the compound, how does the “PBMC 1 μM (% control)” value read?
Answer: The value was 97.6 % control.

Question: With `CC1(C)Cc2cccc(C(=O)N3CCc4c(ncn4-c4ccccc4)C3)c2O1` [Example 52, 5-[(2,2-Dimethyl-2,3-dihydro-1-benzofuran-7-yl)carbonyl]-1-phenyl-4,5,6,7-tetrahydro-1H-imidazo[4,5-c]pyridine] as the compound, how does the “PBMC 1 μM (% control)” value read?
Answer: The value was 98.9 % control.

Question: With `CC1c2nnn(-c3cnccn3)c2CCN1C(=O)c1cccc(C(F)(F)F)c1Cl` (centres unmarked) [Example 73, 5-{[2-Chloro-3-(trifluoromethyl)phenyl]carbonyl}-4-methyl-1-pyrazin-2-yl-4,5,6,7-tetrahydro-1H-[1,2,3]triazolo[4,5-c]pyridine] as the compound, how does the “PBMC 1 μM (% control)” value read?
Answer: Its value is 4.3 % control.

Question: For `O=C(c1cccc(C(F)(F)F)c1Cl)N1CCc2c(nnn2-c2cnccn2)C1` [Example 91, 5-{[2-Chloro-3-(trifluoromethyl)phenyl]carbonyl}-1-pyrazin-2-yl-4,5,6,7-tetrahydro-1H-[1,2,3]triazolo[4,5-c]pyridine], which “PBMC 1 μM (% control)” value is on record?
Answer: The value was 6.1 % control.

Question: For `O=C(c1cccc(Cl)c1Cl)N1CCc2c(-c3ccccc3)n[nH]c2C1` [Example 100, 6-[(2,3-Dichlorophenyl)carbonyl]-3-phenyl-4,5,6,7-tetrahydro-1H-pyrazolo[3,4-c]pyridine], which “PBMC 1 μM (% control)” value is on record?
Answer: Its value is 9.2 % control.

Question: Which “PBMC 1 μM (% control)” value does the source give for `Cn1nc2c(c1-c1ccccc1)CCN(C(=O)c1cccc(Cl)c1Cl)C2` [Example 102, 6-[(2,3-Dichlorophenyl)carbonyl]-2-methyl-3-phenyl-4,5,6,7-tetrahydro-2H-pyrazolo[3,4-c]pyridine] here?
Answer: The value was 18.0 % control.

Question: For `Cn1nc2c(c1-c1ccc(F)cc1)CCN(C(=O)c1cccc(C(F)(F)F)c1Cl)C2` [Example 105, 6-{[2-Chloro-3-(trifluoromethyl)phenyl]carbonyl}-3-(4-fluorophenyl)-2-methyl-4,5,6,7-tetrahydro-2H-pyrazolo[3,4-c]pyridine], which “PBMC 1 μM (% control)” value is on record?
Answer: Its value is 51.0 % control.

Question: With `Cn1nc2c(c1-c1cccnc1)CCN(C(=O)c1cccc(C(F)(F)F)c1Cl)C2` [Example 107, 6-{[2-Chloro-3-(trifluoromethyl)phenyl]carbonyl}-2-methyl-3-pyridin-3-yl-4,5,6,7-tetrahydro-2H-pyrazolo[3,4-c]pyridine] as the compound, how does the “PBMC 1 μM (% control)” value read?
Answer: The value was 24.7 % control.

Question: `Cn1nc2c(c1-c1cccnc1)CCN(C(=O)c1cccc(Cl)c1Cl)C2` [Example 111, 6-[(2,3-Dichlorophenyl)carbonyl]-2-methyl-3-pyridin-3-yl-4,5,6,7-tetrahydro-2H-pyrazolo[3,4-c]pyridine] was tested. Which “PBMC 1 μM (% control)” value did it give?
Answer: Its value is 15.7 % control.

Question: For `COc1ccccc1-n1nnc2c1CCN(C(=O)c1cccc(C(F)(F)F)c1F)C2` [Example 124, (2-Fluoro-3-(trifluoromethyl)phenyl)(1-(2-methoxyphenyl)-6,7-dihydro-1H-[1,2,3]triazolo[4,5-c]pyridin-5(4H)-yl)methanone], which “PBMC 1 μM (% control)” value is on record?
Answer: The value was 94.7 % control.

same assay, conditions: compound 10 μM, LPS 30 ng/ml, Bz-ATP 0.5 mM

Question: `CC1c2ncn(-c3ccccn3)c2CCN1C(=O)c1cccc(C(F)(F)F)c1F` (centres unmarked) [Example 19, (2-Fluoro-3-(trifluoromethyl)phenyl)(4-methyl-1-(pyridin-2-yl)-6,7-dihydro-1H-imidazo[4,5-c]pyridin-5(4H)-yl)methanone] was tested. Which “PBMC 10 μM (% control)” value did it give?
Answer: Its value is 11.6 % control.

Question: How did the “PBMC 10 μM (% control)” value turn out when `CC1c2ncn(-c3ncc(F)cn3)c2CCN1C(=O)c1cccc(C(F)(F)F)c1Cl` (centres unmarked) [Example 22, (2-Chloro-3-(trifluoromethyl)phenyl)(1-(5-fluoropyrimidin-2-yl)-4-methyl-6,7-dihydro-1H-imidazo[4,5-c]pyridin-5(4H)-yl)methanone] was run?
Answer: Its value is −15.9 % control.

Question: For `O=C(c1cccc(C(F)(F)F)c1Cl)N1CCc2[nH]cnc2C1C(F)(F)F` (centres unmarked) [Example 39, 5-{[2-Chloro-3-(trifluoromethyl)phenyl]carbonyl}-4-(trifluoromethyl)-4,5,6,7-tetrahydro-1H-imidazo[4,5-c]pyridine], which “PBMC 10 μM (% control)” value is on record?
Answer: Its value is 112.0 % control.

Question: For `O=C(c1cccc(C(F)(F)F)c1Cl)N1CCc2c(nnn2-c2ncccn2)C1` [Example 65, 5-{[2-Chloro-3-(trifluoromethyl)phenyl]carbonyl}-1-pyrimidin-2-yl-4,5,6,7-tetrahydro-1H-[1,2,3]triazolo[4,5-c]pyridine], which “PBMC 10 μM (% control)” value is on record?
Answer: The value was 5.8 % control.

Question: With `CC1c2nnn(-c3ncccn3)c2CCN1C(=O)c1cccc(C(F)(F)F)c1Cl` (centres unmarked) [Example 80, 5-{[2-Chloro-3-(trifluoromethyl)phenyl]carbonyl}-4-methyl-1-pyrimidin-2-yl-4,5,6,7-tetrahydro-1H-[1,2,3]triazolo[4,5-c]pyridine] as the compound, how does the “PBMC 10 μM (% control)” value read?
Answer: Its value is 4.6 % control.

Question: For `CC1c2nnn(-c3cc[nH]n3)c2CCN1C(=O)c1cccc(C(F)(F)F)c1Cl` (centres unmarked) [Example 85, 5-{[2-Chloro-3-(trifluoromethyl)phenyl]carbonyl}-4-methyl-1-(1H-pyrazol-3-yl)-4,5,6,7-tetrahydro-1H-[1,2,3]triazolo[4,5-c]pyridine], which “PBMC 10 μM (% control)” value is on record?
Answer: The value was 24.7 % control.

Question: `CC1Cc2c(nnn2-c2ccccn2)CN1C(=O)c1cccc(C(F)(F)F)c1Cl` (centres unmarked) [Example 116, 5-{[2-Chloro-3-(trifluoromethyl)phenyl]carbonyl}-6-methyl-1-pyridin-2-yl-4,5,6,7-tetrahydro-1H-[1,2,3]triazolo[4,5-c]pyridine] was tested. Which “PBMC 10 μM (% control)” value did it give?
Answer: Its value is 45.3 % control.

Question: How did the “PBMC 10 μM (% control)” value turn out when `CC1Cc2c(nnn2-c2ncccc2F)CN1C(=O)c1cccc(C(F)(F)F)c1Cl` (centres unmarked) [Example 122, 5-{[2-Chloro-3-(trifluoromethyl)phenyl]carbonyl}-1-(3-fluoropyridin-2-yl)-6-methyl-4,5,6,7-tetrahydro-1H-[1,2,3]triazolo[4,5-c]pyridine] was run?
Answer: Its value is 0.2 % control.

Question: How did the “PBMC 10 μM (% control)” value turn out when `CC1c2nnn(-c3ncc(F)cn3)c2CCN1C(=O)c1cccc(C(F)(F)F)c1Cl` (centres unmarked) [Example 153, (2-Chloro-3-(trifluoromethyl)phenyl)(1-(5-fluoropyrimidin-2-yl)-4-methyl-6,7-dihydro-1H-[1,2,3]triazolo[4,5-c]pyridin-5(4H)-yl)methanone] was run?
Answer: Its value is 28.9 % control.

Question: Which “PBMC 10 μM (% control)” value does the source give for `CC1Cc2c(nnn2-c2ncccc2F)CN1C(=O)c1cccc(Cl)c1Cl` (centres unmarked) [Example 161, (2,3-Dichlorophenyl)(1-(3-fluoropyridin-2-yl)-6-methyl-6,7-dihydro-1H-[1,2,3]triazolo[4,5-c]pyridin-5(4H)-yl)methanone] here?
Answer: Its value is −0.9 % control.

Question: Which “PBMC 10 μM (% control)” value does the source give for `CC1c2nnn(-c3ncc(F)cn3)c2CCN1C(=O)c1cccc(C(F)(F)F)c1F` (centres unmarked) [Example 175, (2-fluoro-3-(trifluoromethyl)phenyl)(1-(5-fluoropyrimidin-2-yl)-4-methyl-6,7-dihydro-1H-[1,2,3]triazolo[4,5-c]pyridin-5(4H)-yl)methanone] here?
Answer: The value was 4.5 % control.

Question: With `CCc1nc2c(n1-c1ccccc1)CCN(C(=O)c1cccc(C(F)(F)F)c1Cl)C2C` (centres unmarked) [Example 184, (2-Chloro-3-(trifluoromethyl)phenyl)(2-ethyl-4-methyl-1-phenyl-6,7-dihydro-1H-imidazo[4,5-c]pyridin-5(4H)-yl)methanone] as the compound, how does the “PBMC 10 μM (% control)” value read?
Answer: Its value is −0.7 % control.

Question: How did the “PBMC 10 μM (% control)” value turn out when `CC1Cc2c(nnn2-c2ncc(F)cn2)CN1C(=O)c1cccc(C(F)(F)F)c1Cl` (centres unmarked) [Example 200, 5-{[2-Chloro-3-(trifluoromethyl)phenyl]carbonyl}-1-(5-fluoropyrimidin-2-yl)-6-methyl-4,5,6,7-tetrahydro-1H-[1,2,3]triazolo[4,5-c]pyridine] was run?
Answer: The value was 3.2 % control.

Question: Which “PBMC 10 μM (% control)” value does the source give for `CC1Cc2c(nnn2-c2ncc(F)cn2)CN1C(=O)c1cccc(Cl)c1Cl` (centres unmarked) [Example 203, 5-[(2,3-Dichlorophenyl)carbonyl]-1-(5-fluoropyrimidin-2-yl)-6-methyl-4,5,6,7-tetrahydro-1H-[1,2,3]triazolo[4,5-c]pyridine] here?
Answer: Its value is 0.6 % control.

Question: For `Cc1c(C(=O)N2Cc3nnn(-c4ncc(F)cn4)c3CC2C)cccc1C(F)(F)F` (centres unmarked) [Example 206, 1-(5-Fluoropyrimidin-2-yl)-6-methyl-5-{[2-methyl-3-(trifluoromethyl)phenyl]carbonyl}-4,5,6,7-tetrahydro-1H-[1,2,3]triazolo[4,5-c]pyridine], which “PBMC 10 μM (% control)” value is on record?
Answer: The value was −1.0 % control.

Question: Which “PBMC 10 μM (% control)” value does the source give for `CC1Cc2c(nnn2-c2cnccn2)CN1C(=O)c1cccc(C(F)(F)F)c1Cl` (centres unmarked) [Example 209, 5-{[2-Chloro-3-(trifluoromethyl)phenyl]carbonyl}-6-methyl-1-pyrazin-2-yl-4,5,6,7-tetrahydro-1H-[1,2,3]triazolo[4,5-c]pyridine] here?
Answer: Its value is −1.0 % control.

Question: `CC1Cc2c(nnn2-c2cc[nH]n2)CN1C(=O)c1cccc(C(F)(F)F)c1Cl` (centres unmarked) [Example 210, (2-chloro-3-(trifluoromethyl)phenyl)(6-methyl-1-(1H-pyrazol-3-yl)-6,7-dihydro-1H-[1,2,3]triazolo[4,5-c]pyridin-5(4H)-yl)methanone] was tested. Which “PBMC 10 μM (% control)” value did it give?
Answer: Its value is 0.8 % control.
